# Patent publication US20110070326A1, “OREGANO EXTRACT AND ITS COMPONENTS FOR ENHANCING VIGILANCE” (DSM IP ASSETS B.V., priority 2006, published 2011)
# Experiments:
# mouse = assay: Porsolt's Forced Swim Test after subchronic oral gavage; format: in vivo; conditions: 32 mg/kg p.o., −24, −5, −1 h
# Protocol: This test, which detects antidepressant activity, was performed in the same manner as that described in example 7, except that the route of administering the compound and the doses were different. Oregano extract 4 was evaluated at 3 doses (75, 150, and 300 mg/kg), administered orally (p.o.) 24, 5, and 1 hour before the test, and compared with a vehicle control group. The thus administered […] was dissolved in tocopherol-stripped corn oil “vehicle”). The control group was administered vehicle (p.o.), while imipramine (32 mg/kg, p.o.; dissolved in water) was administered to a separate group as reference compound, 24, 5 and 1 h prior to the test.
# Mice were individually placed in cylinders (Height=24.5 cm, Diameter=19.5 cm) containing 13.5 cm water (22° C.) from which they could not escape. The mice were placed in the water for 6 minutes, automatically viewed via a video camera and monitored by a commercially available software system (VideoMot2, TSE Systems GmbH, Germany), and the duration of immobility during the last 4 minutes was measured.
# 10 mice were studied per each of the five groups. Data were analyzed by comparing the treated groups and the positive control group with the vehicle group using Analysis of Variance (ANOVA) and the Bonferroni post-hoc test.
# mice = assay: Porsolt's Forced Swim Test (Behavioral Despair Test), i.p.; format: in vivo, mouse; conditions: 32 mg/kg i.p., −30 min; 15 mice
# Protocol: The test, which detects antidepressant activity, was carried out as described by Porsolt et al supra. Mice which are forced to swim in a situation from which they cannot escape rapidly become immobile. Antidepressants decrease the duration of immobility.
# Mice were individually placed in cylinders (Height=24 cm, Diameter=13 cm) containing 10 cm water (22° C.) from which they could not escape. The mice were placed in the water for 6 minutes and the duration of immobility during the last 4 minutes was measured.
# 15 mice were studied per each of the four groups.
# Oregano extract 1 was evaluated at 3 doses (10, 30 and 60 mg/kg), administered i.p. 30 minutes before the test, and compared with a control group, administered vehicle in the same manner. The thus administered […] was dissolved in vehicle (saline solution containing 3% (v/v) DMSO and 3% (v/v) Tween® 80). Venlafaxine (16 mg/kg, i.p.), as comparison substance, and imipramine (32 mg/kg, i.p.), as reference compound, were administered under the same experimental conditions.
# Data were analyzed by comparing the treated groups with the control group using unpaired Student's t tests and are presented in Table 3.
# [1] = target: T1, human serotonin re-uptake transporter (hSERT) (Homo sapiens, UniProt P31645); assay: Serotonin uptake inhibition in HEK-293 cells expressing hSERT; format: cell-based; conditions: single compounds; transfected HEK-293 cells, 20 nM 3H-serotonin, 30 minutes; read-out: IC50 for tritiated serotonin uptake
# T1 construct: host or cells: HEK-293
# Protocol: HEK-293 cells stably expressing the human serotonin re-uptake transporter (hSERT) were obtained from R. Blakely, Vanderbilt University, USA. The cells were routinely grown in Dulbecco's Modified Eagle's Medium, purchased from Bioconcept, Allschwil, Switzerland containing 10% fetal calf serum, penicillin, streptomycin, L-glutamine and the antibiotic G418 and passaged by trypsinisation. 1 day prior to the assay cells were seeded in the above mentioned medium. […] Serotonin uptake into the cells was determined by addition of radio-labeled (3H) serotonin (Amersham Biosciences GE Healthcare, Slough, UK) to a concentration of 20 nM, and incubation for 30 minutes at room temperature. Following removal of unincorporated label by gentle washing three times with the above buffer, incorporated serotonin was quantified by liquid scintillation counting.
# [2] = target: T2, human dopamine transporter (hDAT) (Homo sapiens, UniProt Q01959); format: cell-based; conditions: transfected CHO-Ki cells, 50 nM [3H]Dopamine; n = 2; read-out: IC50 for inhibition of dopamine reuptake
# T2 construct: expressed in transfected cells; host or cells: CHO-Ki (CHO-K1)
# Protocol: CHO-Ki/hDAT cells expressing the human dopamine transporter (hDAT) were plated before the assay. Cells (2×10^5/ml) were incubated with oregano extract and/or vehicle in modified Tris-HEPES buffer pH 7.1 at 25° C. for 20 minutes before addition of 50 nM [^3H]Dopamine for 10 minutes. Specific signal was determined in the presence of 10 μM nomifensine. Cells were then solubilized with 1% SDS lysis buffer. Reduction of [^3H]Dopamine uptake by 50 percent or more (≧50%) relative to vehicle controls indicates significant inhibitory activity.
# T1 sequence (P31645 whole entry): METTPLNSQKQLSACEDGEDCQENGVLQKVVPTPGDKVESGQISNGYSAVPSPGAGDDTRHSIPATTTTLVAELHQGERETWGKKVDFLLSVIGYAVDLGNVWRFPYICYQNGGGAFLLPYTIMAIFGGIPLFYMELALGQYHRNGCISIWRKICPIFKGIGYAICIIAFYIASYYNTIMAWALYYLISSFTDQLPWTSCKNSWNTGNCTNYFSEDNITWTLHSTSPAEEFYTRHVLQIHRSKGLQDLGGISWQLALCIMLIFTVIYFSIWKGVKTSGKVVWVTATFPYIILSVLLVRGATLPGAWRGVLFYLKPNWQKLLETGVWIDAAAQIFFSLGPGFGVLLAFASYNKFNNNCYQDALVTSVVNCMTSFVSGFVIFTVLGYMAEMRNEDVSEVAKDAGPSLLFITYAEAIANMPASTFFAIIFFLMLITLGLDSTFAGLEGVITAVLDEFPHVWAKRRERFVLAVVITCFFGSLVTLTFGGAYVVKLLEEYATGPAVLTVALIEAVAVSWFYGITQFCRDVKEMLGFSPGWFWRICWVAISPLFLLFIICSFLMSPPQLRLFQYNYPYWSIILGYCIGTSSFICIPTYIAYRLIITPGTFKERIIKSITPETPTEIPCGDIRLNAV
# T2 sequence (Q01959 whole entry): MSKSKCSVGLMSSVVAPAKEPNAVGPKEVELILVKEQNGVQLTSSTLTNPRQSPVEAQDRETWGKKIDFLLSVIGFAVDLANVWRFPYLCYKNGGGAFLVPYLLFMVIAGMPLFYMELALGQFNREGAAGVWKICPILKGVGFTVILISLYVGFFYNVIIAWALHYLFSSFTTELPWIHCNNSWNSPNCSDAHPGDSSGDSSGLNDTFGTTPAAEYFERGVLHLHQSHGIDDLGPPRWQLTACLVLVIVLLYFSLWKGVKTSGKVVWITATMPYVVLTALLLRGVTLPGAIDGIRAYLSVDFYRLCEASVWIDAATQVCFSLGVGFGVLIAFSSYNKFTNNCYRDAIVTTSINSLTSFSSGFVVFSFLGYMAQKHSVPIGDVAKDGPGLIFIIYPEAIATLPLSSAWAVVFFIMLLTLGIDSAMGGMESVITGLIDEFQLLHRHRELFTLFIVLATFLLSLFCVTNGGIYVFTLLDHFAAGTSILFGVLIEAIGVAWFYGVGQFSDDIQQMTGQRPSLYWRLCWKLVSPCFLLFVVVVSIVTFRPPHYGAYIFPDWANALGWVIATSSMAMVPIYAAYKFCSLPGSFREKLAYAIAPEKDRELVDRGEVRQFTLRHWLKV
smiles,measurement,setting,value
CN(C)CCCN1c2ccccc2CCc2ccccc21 [Imipramine],DURATION OF IMMOBILITY % change from control,mouse,−50%
same,DURATION OF IMMOBILITY (s) Mean ± s.e.m.,mouse; 10 mice,64.59 ± 8.26 s
same,DURATION OF IMMOBILITY % change from control,mice,−70%
same,DURATION OF IMMOBILITY (s) Mean ± s.e.m.,mice,49.7 ± 7.9 s
Cc1ccc(C(C)C)c(O)c1 [Thymol],IC50,[1],5 µM
Cc1cc(O)c(C(C)C)cc1O [Thymoquinol],IC50,[2],65.6 ± 1.2 µM
same,IC50,[1],26.6 µM
